Reference: patent US11154515B2, “Pharmaceutical compositions comprising cannabidiol and beta-caryophyllene and methods for their use” (priority 2017, dated 2021)

Columns and labels:
[1] = test system: pro-inflammatory cytokine expression (IL-1α, IL-1β, IL-6, IL-8, TNFα) in HaCaT keratinocytes; assay: Inflammatory epidermal keratinocyte models (SDS, Nickel, Carvacrol, SLIGRL, UVB, Poly p(I:C), SEB/TSLP), cytokine RT-qPCR; assay type: cell-based, human; conditions: seven keratinocyte inflammation models
[2] = test system: OXA-induced ear edema, ACD mouse model; assay: Oxazolone-induced allergic contact dermatitis model, ear edema; assay type: in vivo
Method: Prednisolone was solved in 1:1 of DMSO/saline and was administered topically (15-15 μL to the inner and outer surface of the ears). All other test compounds were solved in 96% ethanol. All solutions of all the concentrations were prepared freshly on the first day of every experiment and were stored at 4° C., then shaken properly before the treatments.
Anesthesia was induced by ketamine (Richter Gedeon, Budapest, Hungary) (100 mg/kg i.p., repeated as required) with xylazine (Lavet Ltd., Budapest, Hungary) (5 mg/kg i.m.). Animals were sensitized on two consecutive days by painting 2% oxazolone (50-50 μL, Merck KGaA) on the shaved abdomen. On the 6th day the right ears were smeared with 2% oxazolone (OXA) dissolved in 96% ethanol: 15-15 μL solution was applied on each of the inner and outer surfaces. Control ears were treated with 96% ethanol in the same way. Drug-treated groups were treated with 15-15 μL of drug solution smeared to the inner and outer side of the ears every 4 hrs of the experiment after oxazolone treatment. A schematic of the experimental protocol is provided in FIG. 24 and the experimental groups are defined below. • (a) Group 1: Ethanol-treated Controls: left ear: 96% ethanol, right ear: 2% oxazolone • (b) Group 2: 1 μM CBD • (c) Group 3: 10 μM CBD • (d) Group 4: 1 μM HU101 • (e) Group 5: 10 μMHU101
Ear thickness was measured with an engineer's micrometer, with 0.1 mm accuracy, before challenge with test agents and after the challenge at different time points. Data are expressed as % increase of ear thickness compared to the initial values.
Results are expressed as mean±SEM. Comparisons between different treatment groups were performed using two-way ANOVA followed by Sidak's post hoc test for skin thickness and one-way ANOVA followed by Bonferroni's post hoc test for MPO and vascular leakage. * p<0.05 was considered to be significant.

Structure (SMILES)	rank order of efficacy among the F-CBDs [1]	efficacy relative to the efficacy of prednisolone ([2]; 1 μM topical, depending on the time-point)	Effect in ACD mouse model, significance of ear edema difference ([2]; OXA + CBD 10 μM vs. OXA + HUF101 1 μM, 24 h)	Effect in ACD mouse model, significance of ear edema difference ([2]; OXA + CBD 10 μM vs. OXA + HUF101 1 μM, 48 h)	Effect in ACD mouse model, significance of ear edema difference ([2]; OXA + CBD 10 μM vs. OXA + HUF101 1 μM, 56 h)	Effect in ACD mouse model, significance of ear edema difference ([2]; OXA + CBD 10 μM vs. OXA + HUF101 10 μM, 48 h)	Effect in ACD mouse model, significance of ear edema difference ([2]; OXA + CBD 10 μM vs. OXA + HUF101 10 μM, 56 h)	Effect in ACD mouse model, significance of ear edema difference ([2]; OXA vs. OXA + HUF101 1 μM, 24 h)	Effect in ACD mouse model, significance of ear edema difference ([2]; OXA vs. OXA + HUF101 1 μM, 48 h)	Effect in ACD mouse model, significance of ear edema difference ([2]; OXA vs. OXA + HUF101 1 μM, 56 h)	Effect in ACD mouse model, significance of ear edema difference ([2]; OXA vs. OXA + HUF101 10 μM, 24 h)	Effect in ACD mouse model, significance of ear edema difference ([2]; OXA vs. OXA + HUF101 10 μM, 48 h)	Effect in ACD mouse model, significance of ear edema difference ([2]; OXA vs. OXA + HUF101 10 μM, 56 h)	anti-inflammatory actions on OXA-induced edema ([2]; both doses (1 μM and 10 μM), topical, all time-points)	effects compared with 1 μM or 10 μM CBD ([2]; both doses, statistically significant compared to 10 μM CBD)	efficacy of 1 μM compared with 10 μM ([2]; topical)	reduction in OXA-induced edema formation ([2]; positive control, topical)
C=C(C)[C@@H]1CCC(C)=C[C@H]1c1c(O)cc(CCCCC)c(F)c1O [HUF101]	HUF103>HU559a>HUF101	40-60%	** (** p ≤ 0.01)	*** (*** p ≤ 0.001)	*** (*** p ≤ 0.001)	** (** p ≤ 0.01)	*** (*** p ≤ 0.001)	*** (*** p ≤ 0.001)	*** (*** p ≤ 0.001)	*** (*** p ≤ 0.001)	*** (*** p ≤ 0.001)	*** (*** p ≤ 0.001)	* (* p ≤ 0.05)	statistically significant anti-inflammatory actions at all time-points	more robust effects	somewhat higher	–
C[C@]12C=CC(=O)C=C1CC[C@@H]1[C@@H]2[C@@H](O)C[C@@]2(C)[C@H]1CC[C@]2(O)C(=O)CO [Prednisolone, reference compound]	–	–	–	–	–	–	–	–	–	–	–	–	–	–	–	–	most robust reduction
